“Also recorded” adds a separate entry of the source.
Columns and labels:
[1] = system: HTB-178 lung tumor cells (EGFR+, PIK3CA+, RB1−, TP53−); assay: Killing effects on HTB-178 tumor cells; type: cell-based, human
[2] = system: LC3A/B puncta; assay: Autophagy induction analysis (LC3A/B puncta immuno-staining); type: cell-based, human; settings: for Assay 15: Potential autophagy induction by LC3A/B puncta assays: 10 uM & 20 uM, YES/NO; for Exp. 2, normalized change of nuclei numbers (Less cells): 20X objective, lysosomal LAMP co-staining
Method in brief: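 WI-38 cells were treated with compounds for 24 hrs, then immunostained for LC3A/B (overnight, 4° C) with DAPI counterstain and imaged by high-content microscopy. Experiment 1 used total puncta intensity. Experiment 2 used LAMP2-colocalized (lysosomal) puncta. Intensity was normalized to nuclei count.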

[3] = system: NRF2; assay: in vitro; type: cell-based, human; settings: for NRF2-dependency for H2O2-resistance, at 10 uM - with H2O2, 1st experiment: experiment 1 (1st); for NRF2-dependency for H2O2-resistance, at 10 uM - with H2O2, 2nd experiment: experiment 2 (2nd); for NRF2-dependency for H2O2-resistance, 1st experiment / NRF2-dependency for H2O2-resistance, 2nd experiment: with H2O2, NRF2 knockdown in WI-38 cells; for Assay 17: NRF2-dependency for H2O2-resistance: YES/NO; for NRF2-dependency of H2O2-resistance (NRF2 siRNA knockdown): at least 2 of 3 independent experiments; for viability of non-stressed cells, reduced by: human, 24 h
[4] = in vitro; type: cell-based, human; settings: human
[5] = system: C. elegans; type: in vivo, Caenorhabditis elegans; settings: in vivo
Method in brief: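 Worms treated in liquid with compounds in 96-well plates (4 wells each, FUdR to block progeny, 0.2% DMSO controls); H2O2 at 500 μM final added on day 4 of adulthood and viability scored daily.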

[6] = system: human protein targets; settings: PubChem database queries; cited from earlier work
[7] = 10 uM, YES = resistance reduced by at least 50%, partial = 25% to 50%
[8] = Exp. 1, 10 μM, 10X objective, WI-38 cells

Row | SMILES | Potential killing effects on HTB-178 tumor cells, 1st ([1]; Assay 1(y), at 10 uM) | H = Potential Autophagy Induction ([2]; score) | H = Potential Autophagy Induction ([2]; summary score) | Survival of NRF2 siRNA-transfected cells in the absence of H2O2 [3] | NRF2-dependency for H2O2-resistance, at 10 uM - with H2O2, 1st experiment ([3]; 10 uM) | NRF2-dependency for H2O2-resistance, at 10 uM - with H2O2, 2nd experiment ([3]; 10 uM) | NRF2-dependency for H2O2-resistance, 1st experiment [3, 7] | NRF2-dependency for H2O2-resistance, 2nd experiment [3, 7] | Assay 17: NRF2-dependency for H2O2-resistance ([3]; 10 uM) | NRF2-dependency of H2O2-resistance (NRF2 siRNA knockdown) [3] | viability of non-stressed cells, reduced by ([3]; 10 uM) | J = NRF2-dependency for H2O2-resistance ([3]; score) | J = NRF2-dependency for H2O2-resistance ([3]; summary score) | cytotoxicity at 24 h, 10 uM [4] [%] | H2O2-resistance assay, 1st experiment [5] | L = H2O2-resistance in worms [5] | N = H2O2-resistance in woms [5] | Potential targets: human protein targets (confirmed) [6] | Assay 15: Potential autophagy induction by LC3A/B puncta assays [2] | also measured
1 | O=C(NCc1cccnc1)/C(=C\c1cccc(Oc2ccccc2)c1)S(=O)(=O)c1ccccc1 [Gr-7A] | YES; | 0 | 0 | could reduce the survival | 1st, YES; | 2nd, YES. | YES; | YES. | YES | significantly attenuate | by 84%) | 1 | 1 | 84 | YES; | 1 | 1 | – | – | Assay 21: Potential killing effects on HTB-178 tumor cells ([1]; 10 uM, YES/NO): YES; Toxicity / viability of HTB-178 lung tumor cells ([1]; 10 μM, preliminary data): exerted more pronounced toxicity; also recorded: significantly reduce the viability; Potential killing effects on HTB-178 tumor cells, 2nd ([1]; Assay 1(y), at 10 uM, 2nd): YES.; Protection of C. elegans from hydrogen peroxide [5]: could protect C. elegans from hydrogen peroxide
2 | O=C(NCc1cccnc1)/C(=C/c1ccc(-c2ccc(Cl)cc2)o1)S(=O)(=O)c1ccccc1 [Gr-7C] | – | 0 | 0 | could reduce the survival | 1st, YES; | – | YES; | – | YES | significantly attenuate | by 60%) | 1 | 1 | 60 | – | 0 | 0 | ABHD5, ADRB2, ATXN2, BARD1, BRCA1, CFTR, CHRM4, CYP2C19,; also recorded: EPAS1, GMNN, GPR183, HIF1A, HNF4A, IDH1, IL1B, KCNJ1, MDM2,; also recorded: MDM4, MITF, NCOA1, NCOA2, NCOA3, NFE2L2, NOD1, NOD2, NOD2,; also recorded: NPBWR1, NPSR1, NPY1R, NPY2R, NR2E3, NR2F2, NR5A1, NR5A2, PLIN5,; also recorded: RIPK2, S1PR1, S1PR2, TDP1, TNF, VDR | – | –
3 | O=C(/C(=C/c1ccc(Cl)cc1)c1nc2ccccc2[nH]1)c1ccccc1 [Gr-4D] | YES; | 0 | 0 | – | – | – | – | – | – | partially dependent on NRF2 | – | 0 | 0 | – | YES; | 0 | 0 | ABHD5, ATXN2, BARD1, BRCA, CFTR, CHRM1, CHRM4, CYP2C9, CYP3A4,; also recorded: DRD3, EPAS1, GMNN, GPR183, HIF1A, HNF4A, HTT, IDH1, IL1B, MAPT,; also recorded: MDM2, MDM4, MITF, NFKB1, NOD1, NOD2, PLIN5, RELA, SMAD3, TDP1,; also recorded: TNF, TNFRSF10B, TUBB | – | NRF2-dependency for H2O2-resistance, at 10 uM (experiment 3) - with & without H2O2 ([3]; 10 uM, experiment 3, with & without H2O2): Partial; NRF2-dependency for H2O2-resistance (experiment 3) ([3]; 10 uM, with & without H2O2, NRF2 knockdown in WI-38 cells, YES = resistance reduced by at least 50%, partial = 25% to 50%): Partial
4 | COc1cccc(/C=C2\CN(C)C/C(=C\c3cccc(OC)c3OC)C2=O)c1OC [O23] | YES; | 1 | 1 | could reduce the survival | 1st, YES; | 2nd, YES. | YES; | YES. | YES | significantly attenuate | by 40%) | 1 | 1 | 40 | YES; | 0 | 0 | – | YES | –
5 | NS(=O)(=O)c1ccc(NC(=O)c2ccc([N+](=O)[O-])o2)cc1 [Gr-1A] | YES; | 1 | 1 | could reduce the survival | – | 2nd, partial. | – | partial | YES | significantly attenuate | by 30%) | 1 | 1 | 30 | YES; | 0 | 0 | – | YES | Exp. 1, induction of LC3A/B puncta (Up), total intensity normalized by total number of nuclei in the fields [2, 8]: p < 0.001; Up, 1876%,; Exp. 1, normalized change of nuclei numbers (Less cells) [2, 8]: Less cells, 55%,; Exp. 2, normalized change of nuclei numbers (Less cells) ([2]; Exp. 2, 10 μM, WI-38 cells): Less cells, 66%,; Exp. 2, normalized change of nuclei numbers (Less cells) ([2]; Exp. 2, 20 μM, WI-38 cells): Less cells, 57%,
6 | Cc1ccc(S(=O)(=O)Nc2cccc3cccnc23)cc1 [Gr-3B] | YES; | 0 | 0 | – | – | – | – | – | – | – | – | 0 | 0 | – | YES; | 0 | 0 | ADRB2, AGTR1, APLNR, ARNT, BARD1, BRCA1, CCR6, CFTR, CHRM4,; also recorded: CXCR6, DRD3, EPAS1, GOPC, HIF1A, HTT, IL1B, MAP1LC3A, MDM2,; also recorded: MDM4, MITF, NFE2L2, NOD1, NOD2, NOD2, RR2E3, OPRD1, OPRK1,; also recorded: OPRM1, PRNP, RIPK2, S1PR1, S1PR4, SIX1, SLC12A5, SMAD3, TACC3,; also recorded: TARDBP, TDP1, TLR9, TNF | – | –

From patent US11413278B2, “Compounds and methods for promoting stress resistance” (priority 2015, dated 2022)
